A short description of data set [1]: Plasma disposition kinetics of TCBZ metabolites in F. hepatica-infected sheep (HPLC, non-compartmental analysis). The data set is classed as in vivo. To be noted: for AUC0-∞ / AUC0-t / Cmax / MRT (mean residence time) / T1/2el (elimination half-life) / T1/2for (formation half life) / Tmax: in vivo, 10 mg/kg; for Time metabolites were recovered in plasma post-treatment: sheep plasma, both treated groups, last sampling time 144 h; for AUC0-t / Cmax / MRT (mean residence time) / T1/2el (elimination half-life) / T1/2for (formation half life) / Tmax: sheep. The method, then: (§1) Animals were each orally infected with eighty (80) metacercariae of a TCBZ-resistant F. hepatica isolate, named Sligo. For details of the history of the Sligo isolate, see previous works. Sixteen weeks after infection, animals were randomly distributed into three experimental groups (n = 4 each): Group I, which represented the untreated control group; Group II, in which animals were treated with TCBZ (Fasinex®, Novartis) by the i.r. route at 10 mg/kg dose rate; and Group III, in which animals were simultaneously treated with TCBZ (Fasinex®, Novartis) by the i.r. route (10 mg/kg) and IVM (Ivosint®, Biogénesis) by the s.c. route (0.2 mg/kg, internal face of the thigh). Additionally, animals in Group III were treated by the intramuscular (i.m.) route (Semitendinosus muscle) with MTZ (2.5% aqueous solution) at a dose rate of 1.5 mg/kg. MTZ administration was performed 30 min after TCBZ/IVM treatment. Blood samples (5 ml) were taken by jugular venipunctures into heparinised Vacutainers® tubes (Becton Dickinson, USA) before administration (time 0) and at 1, 3, 6, 9, 12, 18, 24, 30, 36, 48, 72, 96, 120 and 144 h post-treatment. Plasma was separated by centrifugation at 3000 g for 15 min, placed into plastic tubes and frozen at -20°C until analyzed by high performance liquid chromatography (HPLC).
TCBZ and its metabolites were extracted from plasma as previously described. Samples (1 ml) were spiked with 10 μl of oxibendazole (OBZ) (100 μg/ml), used as internal standard. After addition of 2 ml of acetonitrile, samples were shaken for 20 min (multivortex) and then centrifuged at 2500 g for 15 min. The supernatants were recovered and evaporated to dryness in a vacuum concentrator (Speed-Vac®, Savant, Los Angeles, USA). The dry extracts were reconstituted in 300 μl of mobile phase and an aliquot of 50 μl was injected into the HPLC system.
Experimental and fortified plasma samples were analysed by HPLC to determine the concentration of TCBZ and its metabolites following the methodology previously described. The elution from the stationary phase (Selectosil C18 column, 5 μm, 250 × 4.6 mm, Phenomenex®, CA, USA) was carried out at a flow rate of 1.2 ml/min, using a mixture of acetonitrile/ammonium acetate (0.025 M, pH 6.6) as mobile phase. Fifty μl of each previously extracted sample were injected into a Shimadzu 10 A HPLC System (Kyoto, Japan), using a gradient pump, UV detector set at 300 nm, an autosampler and a controller (Shimadzu Class LC10, Kyoto, Japan). Analytes were identified by the retention times of pure reference standards. Chromatographic retention times were: 4.09 (OBZ), 5.91 (TCBZ.SO), 7.95 (TCBZ.SO2) and 10.36 (TCBZ) min. […] The absolute recovery of drug analytes from plasma was calculated by comparison of the peak areas from spiked plasma samples with the peak areas resulting from direct injections of standards in mobile phase. Mean absolute recoveries and coefficient of variations (CV) within the concentration range between 0.1 and 25 μg/ml (triplicate determinations) were 89.2% (CV: 6.74%) (TCBZ), 87.1% (CV: 6.03%) (TCBZ.SO) and 90.1% (CV: 4.75%) (TCBZ.SO2). Precision (intra- and inter-assay) was determined by analysing replicates of fortified plasma samples (n = 5) with each compound at three different concentrations (0.1, 5 and 10 μg/ml). CV ranged from 2.54 to 14.6%. The limit of quantification (LOQ) was defined as the lowest measured concentration with a CV <20% and accuracy of ±20% and an absolute recovery ≥70%. The LOQ defined for the three molecules assayed was 0.1 μg/ml. Values below LOQ were not included in the pharmacokinetic analysis.
The concentration versus time curves for TCBZ metabolites in plasma for individual animals were fitted with the PKSolutions™ computer program/programme (Summit Research Service, Ashland, USA). Pharmacokinetic analysis of the experimental data was performed by non-compartmental analysis. […]

For data set [2], the system named is TCBZ-resistant F. hepatica (Sligo isolate). The data set is described as follows: Clinical efficacy study: fluke counts 15 days after treatment. The data set is classed as in vivo, Fasciola hepatica. The method, then:
as §1
Fifteen days after treatment all animals were stunned and exsanguinated immediately. Adult F. hepatica specimens were recovered from the common bile ducts and the gall bladder of each sheep and counted according to the World Association for the Advancement of Veterinary Parasitology (W.A.A.V.P) guidelines. The efficacy of each anthelmintic treatment was determined by the comparison of F. hepatica burdens in treated versus untreated animals. The following equation expresses the percent efficacy (% E) of a drug treatment against F. hepatica (F.h.) in a single treatment group (T) when compared with an untreated control (C). [drawing 1]
The geometric mean was used as it most accurately represents the distribution of parasite populations within each group.

Details of data set [3]: method as in Alvarez et al., 2008. Conditions: ref Alvarez et al., 2008, cited from earlier work.

We go through four compounds from paper PMC2829539, “Unchanged triclabendazole kinetics after co-administration with ivermectin and methimazole: failure of its therapeutic activity against triclabendazole-resistant liver flukes” (BMC Veterinary Research, 2010).

“And” between values parts separate entries of the source, which are not always exact repeats. Equal entries are not always repeated.

The Cmax is the maximum level reached in the sampled fluid or tissue. The term Tmax denotes the time from dosing to the highest level.

`C[S+]([O-])c1nc2cc(Oc3cccc(Cl)c3Cl)c(Cl)cc2[nH]1` (stereo not shown) [TCBZ.SO, triclabendazole sulphoxide]: in data set [1] (after i.r. administration of TCBZ), the “Share of the total analytes found in sheep plasma” value was 42%. Moreover, in data set [1], the “AUC0-∞” value was determined as 661.5 ± 148.5 µg·h/mL, the “Time metabolites were recovered in plasma post-treatment” value is on record as “up to 144 h”, the AUC0-t came out at 653.9 ± 140.6 µg·h/mL and the Cmax came to 14000 ± 850 ng/mL. Besides, in data set [1], the “MRT (mean residence time)” value was 38.8 ± 10.5 h, the “T1/2el (elimination half-life)” value is 17.5 ± 8.45 h, the “T1/2for (formation half life)” value came out at 6.85 ± 2.18 h and the Tmax is given as 22.5 ± 7.55 h.
For `CSc1nc2cc(Cl)c(Oc3cccc(Cl)c3Cl)cc2[nH]1` [TCBZ alone, 6-chloro-5(2-3 dichlorophenoxy)-2-methyl thio-benzimidazole], in data set [2] (sheep infected with 80 metacercariae, treated 16 weeks after infection, counted 15 days post-treatment, one value per animal (n = 4)), the Individual fluke counts was 2 and 12 and 8 and 5. Moreover, the “Arithmetic mean fluke count” value in data set [2] (sheep, 15 days post-treatment, n = 4, untreated control 13.25) worked out at 6.75. Further, the Clinical efficacy in data set [2] (sheep, 15 days post-treatment, versus untreated control, calculated using geometric means) is 56%.
Consider `CS(=O)(=O)c1nc2cc(Oc3cccc(Cl)c3Cl)c(Cl)cc2[nH]1` [TCBZ.SO2, triclabendazole sulphone], for which, in data set [1], the “AUC0-∞” value stood at 917.9 ± 270.6 µg·h/mL, the “Time metabolites were recovered in plasma post-treatment” value is listed as “up to 144 h”, the AUC0-t was 868.2 ± 217.6 µg·h/mL and the Cmax was 13500 ± 1680 ng/mL. For the same compound, in data set [1], the “MRT (mean residence time)” value is given as 61.3 ± 17.2 h, the “T1/2el (elimination half-life)” value is listed as 26.8 ± 10.9 h, the “T1/2for (formation half life)” value was found to be 12.3 ± 2.90 h and the Tmax is 39.0 ± 6.00 h.
As to `CC[C@H](C)[C@H]1O[C@]2(CC[C@@H]1C)C[C@@H]1C[C@@H](C/C=C(\C)[C@@H](O[C@H]3C[C@H](OC)[C@@H](O[C@H]4C[C@H](OC)[C@@H](O)[C@H](C)O4)[C@H](C)O3)[C@@H](C)/C=C/C=C3\CO[C@@H]4[C@H](O)C(C)=C[C@@H](C(=O)O1)[C@]34O)O2` [IVM, ivermectin], the Initial plasma concentration in data set [3] (after i.v. administration) is 281.2 ± 32.6 ng/mL. Further, the Peak plasma concentration in data set [3] (after s.c. administration at the same dose rate) is 21.3 ± 13.3 ng/mL.
